The test system of the assay is Isolated Rat Bladder Strips. Briefly: Inhibition of Contractions in Isolated Rat Bladder Strips (smooth muscle relaxing activity, 15 mM KCl-enhanced contractile activity). More on the design: species or system Sprague-Dawley rats. Conditions: for inhibition at 30 µM: Rattus norvegicus, maximum percentage inhibition of contractile activity, read-out: Inhibition of Force (%) at (X) μM. From the text: The smooth muscle relaxing activity of the compounds of this invention was established in accordance with standard pharmaceutically accepted test procedures in representative compounds as follows:
Sprague-Dawley rats (150-200 g) are rendered unconscious by CO2 asphyxiation and then euthanized by cervical dislocation. The bladder is removed into warm (37 deg.C.) physiological salt solution (PSS) of the following composition (mM): NaCl, 118.4; KCl, 4.7; CaCl2, 2.5; […]; NaHCO3, 24.9; KH2 PO4, 1.2; glucose, 11.1; EDTA, 0.023; gassed with […]; pH 7.4. The bladder is opened and then cut into strips 1-2 mm in width and 7-10 mm in length. The strips are subsequently suspended in a 10 ml tissue bath under an initial resting tension of 1.5 g. The strips are held in place by two surgical clips one of which is attached to fixed hook while the other is attached to an isometric force transducer. […] The carbachol is then washed out and the tissue allowed to relax to its resting level of activity. Following an additional 30 minute period of recovery an additional 15 mM KCl are introduced into the tissue bath. This increase in KCl concentration results in a large increase in the amplitude of spontaneous contractions (and initiation of contractions in previously quiescent strips) superimposed upon a small increase in basal tone. Following stabilization of this enhanced level of contractile activity, incremental increases in the concentration of test compound or vehicle are introduced into the tissue bath. Contractile activity is measured for each compound or vehicle concentration during the last min of a 30 min challenge.
Isometric force developed by the bladder strips is measured using a […] to elicit 50% inhibition of pre-drug contractile activity (IC50 concentration) is calculated from this concentration-response curve. The maximum percentage inhibition of contractile activity evoked by a test compound is also recorded for concentrations of test compound<or equal to 30 uM.

This is an account of results in patent US5206252A, “Thiadiazolyl-amino derivatives of benzopyrans and indanes” (American Home Products Corporation, priority 1992, dated 1993).

A word on the inhibition: it is the relative decrease from the control value, in per cent.

pIC50: −log10 of the molar value.

Take `CC1(C)Oc2ccc(OC(F)(F)F)cc2[C@@H](NC2=NS(=O)(=O)N=C2N)[C@@H]1O` [Example 2, (-)-(3S,4R)-4-(4-Amino-1,1-dioxo-[1,2,5]thiadiazol-3-ylamino)2,2-dimethyl-6-trifluoromethoxy-chroman-3-ol]: the inhibition at 30 µM came out at 33%. Turning to `CNC1=NS(=O)(=O)N=C1N[C@@H]1c2cc(OC(F)(F)F)ccc2OC(C)(C)[C@H]1O` [Example 3, (-)-(3S,4R)-2,2-Dimethyl-4-(4-methylamino-1,1-dioxo-[1,2,5]-thiadiazol-3-ylamino)-6-trifluoromethoxy-chroman-3-ol], the inhibition at 30 µM was found to be 95%. Moreover, the pIC50 (0.5 h, isolated rat bladder strips, 15 mM KCl, last min of a 30 min challenge, read-out: IC50 (concentration required to elicit 50% inhibition of pre-drug contractile activity)) was 5.32.
